pIC50: −log10 of the molar value.
How the values were obtained:
HIV-1 IN = HIV-1 IN (Human immunodeficiency virus type 1 group M subtype B, UniProt P04585); assay: HIV-1 IN in vitro concerted integration assay (processed or unprocessed donor DNA)
Mos1 transposase (MOS1) [1] = molecular target: T1, Mos1 transposase (MOS1) (Drosophila mauritiana, UniProt Q7JQ07); assay: MOS1 in vitro excision assay; assay type: biochemical, D. mauritiana; conditions: for inhibition at 25 µM: DMSO control as reference, read-out: inhibition of in vitro excision reaction; for pIC50: concentration range, sigmoid dose-response fit
T1 construct: involving the full-length Mos1 transposase (MOS1) was recently solved; made in house
T1 sequence (Q7JQ07 whole entry): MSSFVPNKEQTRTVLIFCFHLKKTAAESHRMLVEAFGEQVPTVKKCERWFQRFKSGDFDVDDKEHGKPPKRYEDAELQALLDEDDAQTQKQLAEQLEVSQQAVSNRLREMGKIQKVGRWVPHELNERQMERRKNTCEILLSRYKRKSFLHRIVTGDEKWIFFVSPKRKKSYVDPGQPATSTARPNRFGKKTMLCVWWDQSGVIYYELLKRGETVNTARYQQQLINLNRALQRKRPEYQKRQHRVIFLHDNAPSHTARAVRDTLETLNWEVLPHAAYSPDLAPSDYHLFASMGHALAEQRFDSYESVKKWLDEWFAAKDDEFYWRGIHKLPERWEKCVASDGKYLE
Method: Basic excision reaction mixtures contained 10 mM Tris-HCl (pH 9), 50 mM NaCl, 20 mM MgCl2, 0.5 mM EDTA, 0.5 mM DTT, 100 ng BSA, 600 ng of super-coiled pBC-3T3, and 80 nM MBP-MOS1 (added last) in a volume of 20 µl. Molecules (25 or 10 µM, as specified) or DMSO (2%) were added to the reaction mixtures before the transposase. The reactions were allowed to proceed at 30°C for 30 min before 2 µl of stop solution (loading buffer) were added. The reaction mixtures were then incubated at 65°C for 10 min. Each reaction was analysed by overnight electrophoresis at 2.7 V/cm on a TAE-buffered 1% agarose gel with ethidium bromide (0.3 mg/ml). After electrophoresis, the gel was photographed on a transilluminator. ImageGauge 4.22 software (Fujifilm) was used to quantify the bands. Each condition was tested at least twice.
The ability of the selected molecules to inhibit excision was tested in vitro using the pBC-3T3 plasmid as the transposon donor. MOS1 triggers the excision of the pseudo-Mos1 from the plasmid producing two linear DNA fragments, the transposon and the plasmid backbone, together with intermediate products (open circle plasmids which contained single strand nicks and linear plasmids which contained a double strand nick at one ITR). After excision, the transposon could be reintegrated, making it difficult to detect in electrophoresis. The activity of the molecules was measured by quantifying the plasmid backbone, the end product of the reaction. The assays were performed with final concentrations of 25 and 10 µM molecules. Controls correspond to assays performed without molecule but with DMSO. […] Reactions were performed at least twice for each selected molecules (leachianol G, leachianol F, quadrangularin A, hopeaphenol, vitisin B and pallidol) and the excision activity is reported in figure 7B . […] The six selected molecules were then tested for the integration step of Mos1 transposition.

Mos1 transposase (MOS1) [2] = molecular target: T1, Mos1 transposase (MOS1); assay: MOS1 in vitro transposition assay (genetic hop experiment); assay type: biochemical, D. mauritiana
Method: The wild type Mos1 transposase (MOS1: 345 amino acids) was produced and purified as a fusion protein linked to the maltose-binding protein by using the pMal-c2 system (New England Biolabs) and following the manufacturer's instructions.
In vitro transposition reactions were performed using pBC-3T3 as both the donor DNA and the target, as previously described. Briefly, the basic transposition reaction mixtures contained 10 mM Tris-HCl (pH 9), 50 mM NaCl, 20 mM MgCl2, 0.5 mM EDTA, 5% glycerol, 5 ng/ml BSA, 600 ng pBC-3T3, and 80 nM purified MBP-MOS1 (added last) in a volume of 20 µl. Inhibitors (25 or 10 µM, as specified) or DMSO (2%) were added to the reaction mixtures before the transposase. The reactions were allowed to proceed for 30 min at 30°C. After phenol-chloroform extraction and ethanol precipitation, 10% of the reaction mixture was transformed in electro-competent JM109 E. coli (2 mm cuvette, 1.5 kV in a MicroPulser™BioRad). Appropriate dilutions of each reaction mixture were plated on LB-tetracycline (12.5 µg/ml) agar and LB-chloramphenicol (80 µg/ml) agar to score the transposition rate. The transposition rate was the number of Tet^R colonies divided by the number of Chloram^R plus Tet^R colonies. Each condition was done at least three times in independent experiments.
To identify the natural stilbenes active on MOS1, the 17 molecules were tested using an in vitro genetic “hop” experiment, which is the most sensitive test available as yet. Purified MOS1 was incubated with the pBC-3T3 plasmid, which was used both as the transposon donor and the target plasmid. This plasmid contains the pBR322 tetracycline resistance gene (without promoter) framed by two Mos1 ITRs. This reconstitutes a pseudo-Mos1 element named 3T3. We took advantage of the fact that the cat gene (present in the pBC backbone) is a hotspot for Mos1 integration. […] Transposition events were recovered by bacterial transformation with selection for tetracycline resistance, as a gain-of-function landmark for transposition. […] Controls correspond to assays performed without molecule but with DMSO, which is routinely used as the solvent. […] To confirm the efficiency of the six molecules, they were similarly assayed at 10 µM ( figure 6B ). Since they appeared to be still active at 10 µM, they were further characterized in order to identify the targeted step of the transposition cycle.

| Compound | inhibition at 10 µM (HIV-1 IN; read-out: inhibition of concerted integration) | inhibition at 25 µM (Mos1 transposase (MOS1) [1]) | pIC50 (Mos1 transposase (MOS1) [1]) | activity against MOS1 in transposition assay (Mos1 transposase (MOS1) [2]; 10 µM) | activity against MOS1 in transposition assay (Mos1 transposase (MOS1) [2]; 25 µM) | inhibition of concerted integration from processed and unprocessed donor (HIV-1 IN; increasing concentrations) |
| --- | --- | --- | --- | --- | --- | --- |
| Oc1ccc([C@@H]2c3c(O)cc(O)cc3[C@H]3c4c(cc(O)cc4C2C2c4cc(O)cc5c4[C@H](c4cc(O)cc(O)c4[C@H]2c2ccc(O)cc2)[C@@H](c2ccc(O)cc2)O5)O[C@@H]3c2ccc(O)cc2)cc1 (stereo partly shown) [hopeaphenol] | < 5% | > 50% | 5.07 | still active | active against MOS1 |  |
| Oc1ccc([C@@H]2c3c(O)cc(O)cc3[C@H]3[C@H](c4ccc(O)cc4)c4c(O)cc(O)cc4[C@@H]23)cc1 [pallidol] |  | > 50% | 5.10 | still active | active against MOS1 | inhibited both activities |
